Experimental findings from patent publication US11952365B2, “Anti-viral compounds” (Aligos Therapeutics, Inc., priority 2020, dated 2024) are described below.

Like-named read-outs stand apart in the source and are kept apart here.

In data set [1] the target is HRV3C (Human rhinovirus 14, UniProt P03303). The experiment in a line: HRV3C protease assay (duplex, SAMDI-MS). It is filed as biochemical, HRV. The note with it: 30 mins preincubation. The procedure, abridged:
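HRV3C was preincubated 30 min with compound alongside 3CLpro at ambient temperature, then two biotinylated peptide substrates were added for 30 min. Quenching used 0.5% formic acid (final). Cleaved product was captured on neutravidin SAMDI arrays and quantified by MALDI-TOF as product/internal-standard AUC ratio; IC50 from four-parameter fit.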

The subject of data set [2] is human beta-coronavirus OC43. Kind of data set: microbe, parasite or virus in culture. It is filed as cell-based. The note with it: Betacoronavirus 1, OC43, HeLa, 144 h.
The nature of data set [3]: Cytotoxicity plates without OC43 virus (cell-titer-glo). It is filed as cell-based, human. The note with it: human; HeLa cells without OC43 virus, class symbols. An outline of the steps:
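Run as a virus-free counterpart of the OC43 cytopathic-effect assay. Attached HeLa cells received compound dilutions in EMEM with 2% FBS and were kept 6 days at 33 °C. Cell viability was then measured by CellTiter-Glo luminescence.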

The subject of data set [4] is SARS-CoV-2-GHB-03021/2020. Kind of data set: SARS-CoV-2 Infection Model in Huh7 Cells. It counts as cell-based. The conditions noted are these: Severe acute respiratory syndrome coronavirus 2, Huh-7, 96 h, SARS-CoV-2, day 4 p.i., MTS.
Data set [5] concerns SARS-CoV-2-GHB-03021/2020. The experiment in a line: microbe, parasite or virus in culture. It is filed as cell-based. The note with it: Severe acute respiratory syndrome coronavirus 2, Vero C1008, 96 h; read-out: VeroE6 + CP (EC50).
Data set [6] addresses T1, human cathepsin L (Homo sapiens, UniProt P07711).
T1 construct: purchased R&D Systems
The experiment in a line: cathepsin L assay. It counts as biochemical. The conditions noted are these: 10 pM human cathepsin L, Z-FR-AMC 2 μM. An outline of the steps: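 Reactions began by adding 2 μM (final) Z-FR-AMC substrate to 10 pM human cathepsin L that had been preincubated 30 min with inhibitor. Kinetic AMC fluorescence at 355/460 nm over 30 min at 2-min intervals; four-parameter fitting gave IC50 values.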

A short description of data set [7]: in vitro. The conditions noted are these: human.
The nature of data set [8]: in vitro. The conditions noted are these: African green monkey, VeroE6 + CP (CC50), Vero E6-eGFP cells with CP-100356, absence of virus, MTS.
For data set [9], the target named is 3CLpro (Severe acute respiratory syndrome coronavirus 2, UniProt P0DTD1). Kind of data set: SARS-CoV-2 3CLpro protease assay (duplex, SAMDI-MS). It counts as biochemical. The note with it: 3CLpro, 30 mins preincubation, class symbols; read-out: SARS-Cov-2 IC50. Also noted: For the duplex assay, 3CLpro and HRV3C was added.
Setting [10] is: HRV3C, bound, read-out: HRV IC50.
Setting [11] is: OC43 in HeLa cells, 6 days at 33° C., class symbols, read-out: EC50.
[12] abbreviates: HRV3C, class symbols, read-out: HRV IC50.
Setting [13] is: OC43 in HeLa cells, 6 days at 33° C., bound, read-out: EC50.

In the case of `COc1cccc2[nH]c(C(=O)N3C[C@H]4[C@@H]([C@H]3C(=O)N[C@@H](C[C@@H]3CCCNC3=O)C(=O)CO)C4(C)C)cc12` [Compound 49, (1R,2S,5S)—N-[(2S)-4-hydroxy-3-oxo-1-[(3S)-2-oxopiperidin-3-yl]butan-2-yl]-3-(4-methoxy-1H-indole-2-carbonyl)-6,6-dimethyl-3-azabicyclo[3.1.0]hexane-2-carboxamide], the IC50 (commonly the concentration needed to halve the response being measured) is > 10 µM in data set [1] (setting [10]), > 3.3 µM in data set [6] (bound) and < 0.02 µM in data set [9]. In addition, the EC50 (usually the midpoint of the concentration-response curve) in data set [2] (setting [11]) is 0.1 to 1 µM; in data set [4] (class symbols) it was 1 to 10 µM; in [5], 1 to 10 µM. Also, in data set [3], the CC50 at 6 days was > 10 µM. Further, the CC50 in data set [7] and in data set [8] (numeric bounds) was > 100 µM throughout.

As to `COc1cccc2[nH]c(C(=O)N3C[C@]4(C[C@H]3C(=O)NC(C[C@@H]3CCCNC3=O)C(=O)C(=O)NC3CC3)CC4(F)F)cc12` (stereo partly drawn) [Compound 38, N-cyclopropyl-3-{[(3S,6S)-1,1-difluoro-5-(4-methoxy-1H-indole-2-carbonyl)-5-azaspiro[2.4]heptan-6-yl]formamido}-2-oxo-4-[(3S)-2-oxopiperidin-3-yl]butanamide], the IC50 in data set [1] (setting [12]) is 0.2 to 2 µM; in data set [6] (class symbols) it was < 0.1 µM; in data set [9] it was 0.02 to 0.2 µM. The EC50 in data set [2] (setting [11]) lay within 0.1 to 1 µM; in data set [4] (class symbols) it was 1 to 10 µM; in data set [5] it was 1 to 10 µM. Also, the CC50 at 6 days in [3] is > 10 µM. Also, the CC50 in data set [7] and in data set [8] (numeric bounds) was > 100 µM throughout.

With `O=C1NCC[C@H]1C[C@H](NC(=O)[C@@H]1[C@H]2CCC[C@H]2CN1C(=O)c1cc2c(OC(F)F)cc(Cl)cc2[nH]1)C(=O)CO` [Compound 126, (1S,3aR,6aS)-2-[6-chloro-4-(difluoromethoxy)-1H-indole-2-carbonyl]-N-[(2S)-4-hydroxy-3-oxo-1-[(3S)-2-oxopyrrolidin-3-yl]butan-2-yl]-hexahydro-1H-cyclopenta[c]pyrrole-1-carboxamide], the IC50 in data set [1] (setting [12]) was 2 to 20 µM; in [6] (class symbols), ≥ 10 µM; in data set [9] it was < 0.02 µM. In addition, the EC50 in data set [2] (setting [11]) is < 0.1 µM; in data set [4] (class symbols), 1 to 10 µM; in data set [5] it was 1 to 10 µM. Also, the CC50 at 6 days in data set [3] was > 10 µM. Besides, the CC50 in data set [7] and in data set [8] (numeric bounds) was > 50 µM each time.

Regarding `COc1cccc2[nH]c(C(=O)N3C[C@]4(C[C@H]3C(=O)N[C@@H](C[C@@H]3CCCNC3=O)C(=O)CO)CC4(F)F)cc12` [Compound 47, (3S,6S)-1,1-difluoro-N-[(2S)-4-hydroxy-3-oxo-1-[(3S)-2-oxopiperidin-3-yl]butan-2-yl]-5-(4-methoxy-1H-indole-2-carbonyl)-5-azaspiro[2.4]heptane-6-carboxamide], the IC50 in data set [1] (setting [12]) was 2 to 20 µM; in data set [6] (class symbols), ≥ 10 µM; in data set [9], 0.02 to 0.2 µM. The results for the EC50 in data set [2] (setting [11]), in data set [4] (class symbols) and in [5] were 0.1 to 1 µM, 1 to 10 µM and 1 to 10 µM, respectively. In data set [3], the CC50 at 6 days was > 10 µM. Further, the CC50 in [7] and in data set [8] (numeric bounds) was > 100 µM in each case.

Consider `O=C1NCC[C@H]1C[C@H](NC(=O)[C@@H]1[C@H]2CCC[C@H]2CN1C(=O)c1cc2c(Cl)cc(OCc3ccccc3)cc2[nH]1)C(=O)CO` [Compound 130, (1S,3aR,6aS)-2-(6-(benzyloxy)-4-chloro-1H-indole-2-carbonyl)-N—((S)-4-hydroxy-3-oxo-1-((S)-2-oxopyrrolidin-3-yl)butan-2-yl)octahydrocyclopenta[c]pyrrole-1-carboxamide], for which the IC50 in [1] (setting [10]) is > 10 µM; in data set [6] (class symbols), ≥ 10 µM; in data set [9], 0.02 to 0.2 µM. Also, the EC50 was < 0.1 µM in data set [2] (setting [11]), < 1 µM in [4] (class symbols) and < 1 µM in data set [5]. Besides, in [3], the CC50 at 6 days was > 10 µM. Besides, the CC50 in [7] and in data set [8] (class symbols) was > 10 µM throughout.

For the compound `O=C1NCC[C@H]1C[C@H](NC(=O)[C@@H]1[C@H]2CCC[C@H]2CN1C(=O)c1cc2ccsc2[nH]1)C(=O)CO` [Compound 80, (1S,3aR,6aS)—N-[(2S)-4-hydroxy-3-oxo-1-[(3S)-2-oxopyrrolidin-3-yl]butan-2-yl]-2-{6H-thieno[2,3-b]pyrrole-5-carbonyl}-hexahydro-1H-cyclopenta[c]pyrrole-1-carboxamide], the IC50 in data set [1] (HRV IC50, HRV3C, class symbols) is 2 to 20 µM; in data set [6] (class symbols), ≥ 10 µM; in [9], 0.02 to 0.2 µM. Also, the EC50 in [2], in data set [4] (class symbols) and in data set [5] was 1 to 10 µM throughout. For the same compound, in data set [3], the CC50 at 6 days is > 10 µM. The CC50 in data set [7] and in [8] (numeric bounds) was > 50 µM each time.

Regarding `COc1cccc2[nH]c(C(=O)N3C[C@@H]4CCC[C@@H]4[C@H]3C(=O)N[C@@H](C[C@@H]3CCNC3=O)C(=O)CO)c(F)c12` [Compound 151, (1S,3aR,6aS)-2-(3-fluoro-4-methoxy-1H-indole-2-carbonyl)-N—((S)-4-hydroxy-3-oxo-1-((S)-2-oxopyrrolidin-3-yl)butan-2-yl)octahydrocyclopenta[c]pyrrole-1-carboxamide], the IC50 in data set [1] (HRV IC50, HRV3C, bound) is > 10 µM; in [6] (class symbols) it was ≥ 10 µM; in data set [9], 0.02 to 0.2 µM. The EC50 in data set [2] is 1 to 10 µM; in data set [4] (class symbols) it was 1 to 10 µM; in [5], 10 to 100 µM. Besides, in [3], the CC50 at 6 days is > 10 µM. In addition, the CC50 in data set [7] and in [8] (numeric bounds) was > 50 µM throughout.

On to `CSc1cccc2[nH]c(C(=O)N3C[C@@H]4CCC[C@@H]4[C@H]3C(=O)N[C@@H](C[C@@H]3CCNC3=O)C(=O)CO)cc12` [Compound 154, (1S,3aR,6aS)—N—((S)-4-hydroxy-3-oxo-1-((S)-2-oxopyrrolidin-3-yl)butan-2-yl)-2-(4-(methylthio)-1H-indole-2-carbonyl)octahydrocyclopenta[c]pyrrole-1-carboxamide], for which the IC50 was 2 to 20 µM in data set [1] (setting [12]), ≥ 10 µM in data set [6] (class symbols) and < 0.02 µM in data set [9]. Also, the EC50 in [2] (setting [11]) was 0.1 to 1 µM; in data set [4] (class symbols), < 1 µM; in data set [5], 1 to 10 µM. Further, the CC50 at 6 days in data set [3] was > 10 µM. In addition, the CC50 in [7] and in data set [8] (numeric bounds) was > 50 µM each time.

On to `O=C1NCC[C@H]1C[C@H](NC(=O)[C@@H]1[C@H]2CCC[C@H]2CN1C(=O)c1cc2c([nH]1)CCS2(=O)=O)C(=O)CO` [Compound 159, (1S,3aR,6aS)-2-{1,1-dioxo-2H,3H,4H-1λ6-thieno[3,2-b]pyrrole-5-carbonyl}-N-[(2S)-4-hydroxy-3-oxo-1-[(3S)-2-oxopyrrolidin-3-yl]butan-2-yl]-hexahydro-1H-cyclopenta[c]pyrrole-1-carboxamide], for which the figures for the IC50 in [1] (setting [10]), in [6] (class symbols) and in data set [9] were > 10 µM, ≥ 10 µM and 0.02 to 0.2 µM, respectively. In addition, the EC50 in data set [2] (setting [13]) was > 10 µM; in data set [4] (numeric bounds), > 10 µM; in data set [5], 10 to 100 µM. Moreover, the CC50 at 6 days in data set [3] is > 10 µM. The CC50 in [7] and in [8] (numeric bounds) was > 50 µM throughout.

With `O=C1NCC[C@H]1C[C@H](NC(=O)[C@@H]1[C@H]2CCC[C@H]2CN1C(=O)c1cc2c3c(ccc2[nH]1)CCO3)C(=O)CO` [Compound 108, (1S,3aR,6aS)-2-{2H,3H,6H-furo[2,3-e]indole-7-carbonyl}-N-[(2S)-4-hydroxy-3-oxo-1-[(3S)-2-oxopyrrolidin-3-yl]butan-2-yl]-hexahydro-1H-cyclopenta[c]pyrrole-1-carboxamide], the values for the IC50 in data set [1] (setting [10]), in data set [6] (class symbols) and in data set [9] were > 10 µM, ≥ 10 µM and 0.02 to 0.2 µM, respectively. For the same compound, the figures for the EC50 in data set [2] (setting [11]), in data set [4] (class symbols) and in data set [5] were 0.1 to 1 µM, 10 to 100 µM and 1 to 10 µM, respectively. Also, the CC50 at 6 days in [3] is > 10 µM. For the same compound, the CC50 in data set [7] and in data set [8] (numeric bounds) was > 50 µM in each case.

As for `COc1cccc2[nH]c(C(=O)N3C[C@@H]4CCC[C@@H]4[C@H]3C(=O)N[C@@H](C[C@@H]3CCNC3=O)C(=O)C(=O)N[C@@H]3CCOC3)cc12` [Compound 105], the figures for the half-inhibitory concentration (IC50) in data set [1] (setting [12]), in [6] (class symbols) and in [9] were 0.2 to 2 µM, ≥ 10 µM and 0.02 to 0.2 µM, respectively. Moreover, the EC50 is > 10 µM in data set [2] (setting [13]), 10 to 100 µM in data set [4] (class symbols) and 10 to 100 µM in data set [5]. Also, in data set [3], the CC50 at 6 days is > 10 µM. The CC50 in data set [7] and in data set [8] (numeric bounds) was > 100 µM each time.
